Source: ChEMBL document CHEMBL4406824, “Phenolic N-monosubstituted carbamates: Antitubercular and toxicity evaluation of multi-targeting compounds” (Eur J Med Chem, 2019)
pIC50: −log10 of the molar value. ≈ marks a conversion by molar mass, not a printed value.

Assays:
Mycobacterium avium [1] = experiment: Antimycobacterial activity against Mycobacterium avium 330/88 after 21 days; type: functional; settings: 330/88, 504 h
in vitro = settings: human, HepG2 cells
Description: Selectivity index, ratio of IC50 for human HepG2 cells to MIC for antimycobacterial activity against Mycobacterium tuberculosis H37Rv

Mycolicibacterium aurum = experiment: Antimycobacterial activity against Mycobacterium aurum DSM 43999 after 72 hr by resazurin dye based microdilution method; type: functional; settings: DSM 43999, 72 h
Mycobacterium kansasii [2] = experiment: Antimycobacterial activity against Mycobacterium kansasii 235/80 after 21 days; type: functional; settings: 235/80, 504 h
[3] = test system: Mycobacterium tuberculosis H37Rv; experiment: Inhibition of recombinant Mycobacterium tuberculosis H37Rv ICL1 expressed in Escherichia coli BL21 (DE3) cells at 10 uM using (+)-potassium Ds-threo-isocitrate as substrate by glyoxylate phenyl hydrazone formation assay relative to control
[4] = test system: Mycolicibacterium smegmatis; experiment: Antimycobacterial activity against Mycobacterium smegmatis DSM 43465 after 120 hr by resazurin dye based microdilution method; type: functional; settings: DSM 43465, 120 h
Mycobacterium kansasii [5] = experiment: Potency index, ratio of p-aminosalicylic acid MIC to compound MIC for antimycobacterial activity against Mycobacterium kansasii 235/80; type: functional
HepG2 [6] = experiment: Cytostatic activity against human HepG2 cells preincubated for overnight in serum free medium followed by compound wash out and further incubated for 72 hrs in presence of serum by MTT assay; type: ADME, cell-based
Mycobacterium kansasii [7] = experiment: Antimycobacterial activity against Mycobacterium kansasii 6509/96 after 21 days; type: functional; settings: 6509/96, 504 h
[8] = test system: Mycobacterium tuberculosis; type: functional; settings: H37Rv 331/88, 504 h
Mycobacterium avium [9] = experiment: Antimycobacterial activity against Mycobacterium avium 330/88 after 14 days; type: functional; settings: 330/88, 336 h
Mycobacterium kansasii [10] = experiment: Potency index, ratio of p-aminosalicylic acid MIC to compound MIC for antimycobacterial activity against Mycobacterium kansasii 6509/96; type: functional
Mycobacterium kansasii [11] = experiment: Antimycobacterial activity against Mycobacterium kansasii 235/80 after 14 days; type: functional; settings: 235/80, 336 h
Mycobacterium kansasii [12] = experiment: Antimycobacterial activity against Mycobacterium kansasii 6509/96 after 14 days; type: functional; settings: 6509/96, 336 h
HepG2 [13] = experiment: Cytotoxicity against human HepG2 cells assessed as reduction in cell viability after overnight incubation by MTT assay; type: cell-based
[14] = test system: Mycobacterium tuberculosis; type: functional, H37Rv 331/88; parameters: reference not given here
[15] = test system: Mycobacterium tuberculosis; experiment: Antimycobacterial activity against Mycobacterium tuberculosis H37Ra ITM-M006710 after 48 hr by resazurin dye based microdilution method; type: functional; settings: H37Ra ITM-M006710, 48 h
Mycobacterium kansasii [16] = experiment: Antimycobacterial activity against Mycobacterium kansasii 6509/96 after 7 days; type: functional; settings: 6509/96, 168 h
Mycobacterium kansasii [17] = experiment: Antimycobacterial activity against Mycobacterium kansasii 235/80 after 7 days; type: functional; settings: 235/80, 168 h
[18] = test system: Mycobacterium tuberculosis; type: functional; settings: H37Rv 331/88, 336 h

SMILES	MIC (Mycobacterium avium [1]) [µM]	selectivity ratio (in vitro)	MIC (Mycolicibacterium aurum)	MIC (Mycobacterium kansasii [2]) [µM]	inhibition [3] [%]	MIC [4]	Ratio (Mycobacterium kansasii [5])	pIC50 (HepG2 [6])	MIC (Mycobacterium kansasii [7]) [µM]	MIC [8] [µM]	MIC (Mycobacterium avium [9]) [µM]	Ratio (Mycobacterium kansasii [10])	MIC (Mycobacterium kansasii [11]) [µM]	MIC (Mycobacterium kansasii [12]) [µM]	pIC50 (HepG2 [13])	Ratio [14]	MIC [15]	MIC (Mycobacterium kansasii [16]) [µM]	MIC (Mycobacterium kansasii [17]) [µM]	MIC [18] [µM]
O=C(NCCc1ccccc1)Oc1ccc(Cl)cc1C(=O)Nc1ccc(Cl)cc1	8 (≈ 3.43 µg/mL)	1.9	1.56 µg/mL	16 (≈ 6.87 µg/mL)	10	1.56 µg/mL	>250	5.29	8 (≈ 3.43 µg/mL)	16 (≈ 6.87 µg/mL)	8 (≈ 3.43 µg/mL)	>250	8 (≈ 3.43 µg/mL)	8 (≈ 3.43 µg/mL)	4.82	>125	1.56 µg/mL	4 (≈ 1.72 µg/mL)	8 (≈ 3.43 µg/mL)	8 (≈ 3.43 µg/mL)
O=C(NCc1ccccc1)Oc1ccc(Cl)cc1C(=O)Nc1ccc(Cl)cc1	16 (≈ 6.64 µg/mL)	> 15.6	1.56 µg/mL	16 (≈ 6.64 µg/mL)	11	1.56 µg/mL	>250	5.19	8 (≈ 3.32 µg/mL)	16 (≈ 6.64 µg/mL)	8 (≈ 3.32 µg/mL)	>250	8 (≈ 3.32 µg/mL)	8 (≈ 3.32 µg/mL)	< 3.60	>125	1.56 µg/mL	4 (≈ 1.66 µg/mL)	8 (≈ 3.32 µg/mL)	16 (≈ 6.64 µg/mL)
O=C(NC12CC3CC(CC(C3)C1)C2)Oc1ccc(Cl)cc1C(=O)Nc1ccc(F)cc1	32 (≈ 14.2 µg/mL)	31.3	1.98 µg/mL	16 (≈ 7.09 µg/mL)	14	1.98 µg/mL	>250	< 3.90	16 (≈ 7.09 µg/mL)	4 (≈ 1.77 µg/mL)	32 (≈ 14.2 µg/mL)	>250	8 (≈ 3.54 µg/mL)	8 (≈ 3.54 µg/mL)	< 3.90	>125	2.24 µM	8 (≈ 3.54 µg/mL)	8 (≈ 3.54 µg/mL)	4 (≈ 1.77 µg/mL)
O=C(NCc1ccccc1)Oc1ccc(Cl)cc1C(=O)Nc1ccc(Br)cc1	16 (≈ 7.36 µg/mL)	> 3.1	1.98 µg/mL	8 (≈ 3.68 µg/mL)	17	1.98 µg/mL	>250	5.78	8 (≈ 3.68 µg/mL)	16 (≈ 7.36 µg/mL)	8 (≈ 3.68 µg/mL)	>250	8 (≈ 3.68 µg/mL)	8 (≈ 3.68 µg/mL)	< 4.30	>125	3.91 µg/mL	4 (≈ 1.84 µg/mL)	4 (≈ 1.84 µg/mL)	16 (≈ 7.36 µg/mL)
O=C(NC1CCCCC1)Oc1ccc(Cl)cc1C(=O)Nc1ccc(Cl)cc1	16 (≈ 6.52 µg/mL)	> 15.6	1.56 µg/mL	32 (≈ 13 µg/mL)	13	1.56 µg/mL	>250	4.47	8 (≈ 3.26 µg/mL)	16 (≈ 6.52 µg/mL)	16 (≈ 6.52 µg/mL)	>250	32 (≈ 13 µg/mL)	8 (≈ 3.26 µg/mL)	< 3.60	>125	3.12 µg/mL	8 (≈ 3.26 µg/mL)	16 (≈ 6.52 µg/mL)	16 (≈ 6.52 µg/mL)
O=C(NC1CCCCC1)Oc1ccc(Cl)cc1C(=O)Nc1ccc(F)cc1	32 (≈ 12.5 µg/mL)	2.7 to 5.3	1.56 µg/mL	32 (≈ 12.5 µg/mL)	18	3.91 µg/mL	>250	5.07	32 (≈ 12.5 µg/mL)	8 (≈ 3.13 µg/mL)	32 (≈ 12.5 µg/mL)	>250	32 (≈ 12.5 µg/mL)	16 (≈ 6.25 µg/mL)	4.67	>125	3.12 µg/mL	16 (≈ 6.25 µg/mL)	16 (≈ 6.25 µg/mL)	4 (≈ 1.56 µg/mL)
O=C(Nc1ccccc1)Oc1ccc(Cl)cc1C(=O)Nc1ccc(F)cc1	32 (≈ 12.3 µg/mL)	> 2.5	1.98 µg/mL	32 (≈ 12.3 µg/mL)	16	1.98 µg/mL	>250	5.49	16 (≈ 6.16 µg/mL)	8 (≈ 3.08 µg/mL)	32 (≈ 12.3 µg/mL)	>250	16 (≈ 6.16 µg/mL)	16 (≈ 6.16 µg/mL)	< 4.70	>125	3.12 µg/mL	8 (≈ 3.08 µg/mL)	8 (≈ 3.08 µg/mL)	4 (≈ 1.54 µg/mL)
O=C(NC12CC3CC(CC(C3)C1)C2)Oc1ccc(Cl)cc1C(=O)Nc1ccc(Cl)cc1	16 (≈ 7.35 µg/mL)	1.5	3.91 µg/mL	16 (≈ 7.35 µg/mL)	11	3.91 µg/mL	>250	5.09	16 (≈ 7.35 µg/mL)	16 (≈ 7.35 µg/mL)	16 (≈ 7.35 µg/mL)	>250	16 (≈ 7.35 µg/mL)	16 (≈ 7.35 µg/mL)	4.62	>125	3.12 µg/mL	8 (≈ 3.67 µg/mL)	8 (≈ 3.67 µg/mL)	16 (≈ 7.35 µg/mL)
O=C(NC1CCCCC1)Oc1ccc(Cl)cc1C(=O)Nc1ccc(Br)cc1	16 (≈ 7.23 µg/mL)	> 6.3	1.56 µg/mL	8 (≈ 3.61 µg/mL)	16	1.56 µg/mL	>250	5.03	8 (≈ 3.61 µg/mL)	16 (≈ 7.23 µg/mL)	8 (≈ 3.61 µg/mL)	>250	8 (≈ 3.61 µg/mL)	8 (≈ 3.61 µg/mL)	< 4.30	>125	1.56 µg/mL	4 (≈ 1.81 µg/mL)	4 (≈ 1.81 µg/mL)	8 (≈ 3.61 µg/mL)
O=C(NC12CC3CC(CC(C3)C1)C2)Oc1ccc(Cl)cc1C(=O)Nc1ccc(Br)cc1	8 (≈ 4.03 µg/mL)	0.5	1.56 µg/mL	8 (≈ 4.03 µg/mL)	18	3.12 µg/mL	>250	5.36	8 (≈ 4.03 µg/mL)	8 (≈ 4.03 µg/mL)	8 (≈ 4.03 µg/mL)	>250	8 (≈ 4.03 µg/mL)	8 (≈ 4.03 µg/mL)	5.38	>125	1.56 µg/mL	4 (≈ 2.02 µg/mL)	4 (≈ 2.02 µg/mL)	8 (≈ 4.03 µg/mL)
O=C(NCc1ccccc1)Oc1ccc(Cl)cc1C(=O)Nc1ccc(C(F)(F)F)cc1	32 (≈ 14.4 µg/mL)	> 31.3	≤ 0.87 µM	16 (≈ 7.18 µg/mL)	14	1.74 µM	>250	5.52	16 (≈ 7.18 µg/mL)	4 (≈ 1.8 µg/mL)	32 (≈ 14.4 µg/mL)	>250	16 (≈ 7.18 µg/mL)	16 (≈ 7.18 µg/mL)	< 3.90	>125	≤ 0.87 µM	8 (≈ 3.59 µg/mL)	8 (≈ 3.59 µg/mL)	2 (≈ 0.898 µg/mL)
O=C(NCCc1ccccc1)Oc1ccc(Cl)cc1C(=O)Nc1ccc(Br)cc1	8 (≈ 3.79 µg/mL)	> 6.3	1.56 µg/mL	8 (≈ 3.79 µg/mL)	17	3.12 µg/mL	>250	5.66	8 (≈ 3.79 µg/mL)	8 (≈ 3.79 µg/mL)	8 (≈ 3.79 µg/mL)	>250	8 (≈ 3.79 µg/mL)	8 (≈ 3.79 µg/mL)	< 4.30	>125	1.65 µM	4 (≈ 1.9 µg/mL)	4 (≈ 1.9 µg/mL)	8 (≈ 3.79 µg/mL)
O=C(Nc1ccccc1)Oc1ccc(Cl)cc1C(=O)Nc1ccc(Br)cc1	16 (≈ 7.13 µg/mL)	> 6.3	1.56 µg/mL	8 (≈ 3.57 µg/mL)	17	1.56 µg/mL	>250	5.26	8 (≈ 3.57 µg/mL)	16 (≈ 7.13 µg/mL)	8 (≈ 3.57 µg/mL)	>250	8 (≈ 3.57 µg/mL)	8 (≈ 3.57 µg/mL)	< 4.30	>125	1.56 µg/mL	4 (≈ 1.78 µg/mL)	4 (≈ 1.78 µg/mL)	8 (≈ 3.57 µg/mL)
O=C(Nc1ccccc1)Oc1ccc(Cl)cc1C(=O)Nc1ccc(Cl)cc1	16 (≈ 6.42 µg/mL)	> 15.6	1.56 µg/mL	32 (≈ 12.8 µg/mL)	10	1.56 µg/mL	>250	6.05	16 (≈ 6.42 µg/mL)	16 (≈ 6.42 µg/mL)	16 (≈ 6.42 µg/mL)	>250	32 (≈ 12.8 µg/mL)	16 (≈ 6.42 µg/mL)	< 3.60	>125	1.56 µg/mL	8 (≈ 3.21 µg/mL)	16 (≈ 6.42 µg/mL)	16 (≈ 6.42 µg/mL)
O=C(NCc1ccccc1)Oc1ccc(Cl)cc1C(=O)Nc1ccc(F)cc1	62.5 (≈ 24.9 µg/mL)	> 7.8	3.12 µg/mL	32 (≈ 12.8 µg/mL)	15	3.12 µg/mL	>250	4.47	32 (≈ 12.8 µg/mL)	16 (≈ 6.38 µg/mL)	62.5 (≈ 24.9 µg/mL)	>250	32 (≈ 12.8 µg/mL)	32 (≈ 12.8 µg/mL)	< 3.90	>125	3.12 µg/mL	16 (≈ 6.38 µg/mL)	16 (≈ 6.38 µg/mL)	8 (≈ 3.19 µg/mL)
